Assay: Assessment of stability: cannabinoid concentrations by HPLC on stored capsules
Details: 40-day incubation at 40° C., dark conditions

Row | Structure (SMILES) | stability of cannabinoid in the formulations (HPLC)
1 | C=C(C)[C@@H]1CCC(C)=C[C@H]1c1c(O)cc(CCCCC)cc1O [CBD, cannabidiol] | remains stable
2 | CCCCCc1cc(O)c2c(c1)OC(C)(C)[C@@H]1CCC(C)=C[C@@H]21 [THC, Tetrahydrocannabinol] | degrades significantly

Source: patent publication US11998632B2, “Oral cannabinoid compositions and methods for treating neuropathic pain” (Avicanna Inc., priority 2019, dated 2024)
